Here are results for 19 compounds from publication PMC7126937 (Bioorganic & Medicinal Chemistry, 2014).

“And” between values parts separate entries of the source, which are not always exact repeats. Identical values can stand only once.

This assay concerns influenza virus A/California/7/09 (H1N1)pdm09. The format is cell-based, influenza virus A/California/07/09 (H1N1)pdm09.
As to `CC(N)C12CC3CC(CC(C3)C1)C2.Cl` (stereo not drawn) [Rimantadine, α-methyl-1-adamantylamine hydrochloride, reference compound], the “ED50 (50% effective concentration; the concentration leading to 50% inhibition of virus replication)” value was 67.0 ± 4.9 µM.
Regarding `CC1(C)[C@@H]2CC[C@@]1(C)/C(=N/CCCCCC/N=C1\C[C@H]3CC[C@]1(C)C3(C)C)C2` [Compound 2b, N^1E,N^6E-N^1,N^6-bis((1R,2R,4R)-1,7,7-trimethylbicyclo[2.2.1]heptan-2-ylidene)hexane-1,6-diamine], the “ED50 (50% effective concentration; the concentration leading to 50% inhibition of virus replication)” value is 15.1 ± 1.1 µM.
Take `CC1(C)[C@@H]2CC[C@@]1(C)[C@H](NCCCCCCCN[C@@H]1C[C@H]3CC[C@]1(C)C3(C)C)C2` [Compound 3c, N^1,N^7-bis((1R,2R,4R)-1,7,7-trimethylbicyclo[2.2.1]heptan-2-yl)heptane-1,7-diamine]: the “ED50 (50% effective concentration; the concentration leading to 50% inhibition of virus replication)” value was 3.2 µM and 3.2 ± 0.2 µM.
For `CN(CCCCCCCN(C)[C@@H]1C[C@H]2CC[C@]1(C)C2(C)C)[C@@H]1C[C@H]2CC[C@]1(C)C2(C)C` [Compound 4c, N^1,N^7-dimethyl-N^1,N^7-bis((1R,2R,4R)-1,7,7-trimethylbicyclo[2.2.1]heptan-2-yl)heptane-1,7-diamine], the “ED50 (50% effective concentration; the concentration leading to 50% inhibition of virus replication)” value amounted to 40.4 ± 3.8 µM.
Turning to `CC1(C)[C@@H]2CC[C@@]1(C)/C(=N/c1ccc(Cc3ccc(/N=C4\C[C@H]5CC[C@]4(C)C5(C)C)cc3)cc1)C2` [Compound 2f, (E)-N-((1R,2R,4R)-1,7,7-trimethylbicyclo[2.2.1]heptan-2-ylidene)-4-(4-((E)-((1R,2R,4R)-1,7,7-trimethylbicyclo[2.2.1]heptan-2-ylidene)amino)benzyl)aniline], the “ED50 (50% effective concentration; the concentration leading to 50% inhibition of virus replication)” value was 351.4 ± 32.3 µM.
`CN(CCCCCCN(C)[C@@H]1C[C@H]2CC[C@]1(C)C2(C)C)[C@@H]1C[C@H]2CC[C@]1(C)C2(C)C` [Compound 4b, N^1,N^6-dimethyl-N^1,N^6-bis((1R,2R,4R)-1,7,7-trimethylbicyclo[2.2.1]heptan-2-yl) hexane-1,6-diamine]: the “ED50 (50% effective concentration; the concentration leading to 50% inhibition of virus replication)” value was found to be 110.1 ± 10.4 µM.
Turning to `CC1(C)[C@@H]2CC[C@@]1(C)/C(=N/c1ccc(Oc3ccc(/N=C4\C[C@H]5CC[C@]4(C)C5(C)C)cc3)cc1)C2` [Compound 2g, (E)-N-((1R,2R,4R)-1,7,7-trimethylbicyclo[2.2.1]heptan-2-ylidene)-4-(4-((E)-((1R,2R,4R)-1,7,7-trimethylbicyclo[2.2.1]heptan-2-ylidene)amino)phenoxy)aniline], the “ED50 (50% effective concentration; the concentration leading to 50% inhibition of virus replication)” value was determined as 373.4 ± 35.1 µM.
For `CC1(C)[C@@H]2CC[C@@]1(C)/C(=N/CCCCCCCC/N=C1\C[C@H]3CC[C@]1(C)C3(C)C)C2` [Compound 2d, N^1E,N^8E-N^1,N^8-bis((1R,2R,4R)-1,7,7-trimethylbicyclo[2.2.1]heptan-2-ylidene)octane-1,8-diamine], the “ED50 (50% effective concentration; the concentration leading to 50% inhibition of virus replication)” value stood at 24.2 ± 2.1 µM.
For `CC1(C)[C@@H]2CC[C@@]1(C)[C@H](NCCCCCCCCCCCCN[C@@H]1C[C@H]3CC[C@]1(C)C3(C)C)C2` [Compound 3e, N^1,N^12-bis((1R,2R,4R)-1,7,7-trimethylbicyclo[2.2.1]heptan-2-yl)dodecane-1,12-diamine] the value was 4.4 ± 0.3 µM.
As to `CC1(C)[C@@H]2CC[C@@]1(C)/C(=N/CCC/N=C1\C[C@H]3CC[C@]1(C)C3(C)C)C2` [Compound 2a, N^1E,N^3E-N^1,N^3-bis((1R,2R,4R)-1,7,7-trimethylbicyclo[2.2.1]heptan-2-ylidene)propane-1,3-diamine], the “ED50 (50% effective concentration; the concentration leading to 50% inhibition of virus replication)” value turned out to be 9.3 ± 0.8 µM.
For `CC1(C)[C@@H]2CC[C@@]1(C)/C(=N/c1ccc(Oc3ccc(N)cc3)cc1)C2` [Compound 5g, (E)-4-(4-aminophenoxy)-N-((1R,2R,4R)-1,7,7-trimethylbicyclo[2.2.1]heptan-2-ylidene)aniline] the value was 4.2 ± 0.0 µM.
For `CC1(C)[C@@H]2CC[C@@]1(C)/C(=N/CCCCCCC/N=C1\C[C@H]3CC[C@]1(C)C3(C)C)C2` [Compound 2c, N^1E,N^7E-N^1,N^7-bis((1R,2R,4R)-1,7,7-trimethylbicyclo[2.2.1]heptan-2-ylidene)heptane-1,7-diamine], the “ED50 (50% effective concentration; the concentration leading to 50% inhibition of virus replication)” value stood at 22.8 ± 2.3 µM.
On to `CC1(C)[C@@H]2CC[C@@]1(C)[C@H](Nc1ccc(Oc3ccc(N[C@@H]4C[C@H]5CC[C@]4(C)C5(C)C)cc3)cc1)C2` [Compound 3g, (1R,2R,4R)-1,7,7-trimethyl-N-(4-(4-((1R,2R,4R)-1,7,7-trimethylbicyclo[2.2.1]heptan-2-ylamino)phenoxy)phenyl)bicyclo[2.2.1]heptan-2-amine], for which the “ED50 (50% effective concentration; the concentration leading to 50% inhibition of virus replication)” value came to 207.6 ± 19.5 µM.
For `CC1(C)[C@@H]2CC[C@@]1(C)[C@H](NCCCCCCN[C@@H]1C[C@H]3CC[C@]1(C)C3(C)C)C2` [Compound 3b, N^1,N^6-bis((1R,2R,4R)-1,7,7-trimethylbicyclo[2.2.1]heptan-2-yl)hexane-1,6-diamine] the value was 0.77 µM and 0.77 ± 0.1 µM; for `NC12CC3CC(CC(C3)C1)C2` [Amantadine, 1-aminoadamantane, reference compound], 64.2 ± 4.7 µM.
For `CC1(C)[C@@H]2CC[C@@]1(C)[C@H](Nc1ccc(Cc3ccc(N[C@@H]4C[C@H]5CC[C@]4(C)C5(C)C)cc3)cc1)C2` [Compound 3f, (1R,2R,4R)-1,7,7-trimethyl-N-(4-(4-((1R,2R,4R)-1,7,7-trimethylbicyclo[2.2.1]heptan-2-ylamino)benzyl)phenyl)bicyclo[2.2.1]heptan-2-amine] the value was 153.2 ± 11.9 µM.
`CC1(C)C2CC[C@@]1(C)C(=O)C2` [Compound 1, (1R)-(+)-camphor, reference compound]: the “ED50 (50% effective concentration; the concentration leading to 50% inhibition of virus replication)” value was 1644.7 ± 144.4 µM.
For `CC1(C)[C@@H]2CC[C@@]1(C)/C(=N/c1ccc(Cc3ccc(N)cc3)cc1)C2` [Compound 5f, (E)-4-(4-aminobenzyl)-N-((1R,2R,4R)-1,7,7-trimethylbicyclo[2.2.1]heptan-2-ylidene)aniline], the “ED50 (50% effective concentration; the concentration leading to 50% inhibition of virus replication)” value was determined as 15.0 ± 1.2 µM.
For `CC1(C)[C@@H]2CC[C@@]1(C)/C(=N/CCCCCCCCCCCC/N=C1\C[C@H]3CC[C@]1(C)C3(C)C)C2` [Compound 2e, N^1E,N^12E-N^1,N^12-bis((1R,2R,4R)-1,7,7-trimethylbicyclo[2.2.1]heptan-2-ylidene)dodecane-1,12-diamine], the “ED50 (50% effective concentration; the concentration leading to 50% inhibition of virus replication)” value was 45.0 ± 3.9 µM.
